In patent publication US9103833B2, “Use of the GTPase Rab27B to diagnose and treat poor prognosis estrogen-receptor-positive breast cancer” (Universiteit Gent, priority 2009, dated 2015):

How the values were obtained:
[1] = test system: MCF-7 GFP-Rab27B cells; assay: type I collagen invasion assay; assay type: cell-based; settings: Homo sapiens, MCF7, 24 hours, MCF-7 GFP-Rab27B cells on type I collagen, P<0.001
Procedure: (§1) For the type I collagen invasion assay, the following precooled components were gently combined and defined as type I collagen solution: four volumes of type I collagen (stock is 3.49 mg/mL), five volumes of calcium- and magnesium-free Hank's balanced salt solution, one volume of MEM (10×), one volume of 0.25 M NaHCO3, 2.65 volumes of culture medium and 0.3 volumes of 1 M NaOH. For each test-condition, 1.25 mL of type I collagen solution was added to one well of 6-well plate, homogeneously spread and gelified on a flat surface in a humidified atmosphere of 10% CO2 in air at 37° C. for at least one hour. […]
(§2) Cell morphology was studied and invasion was scored after 24 hours (De Wever et al., (44)). […] It was calculated as (perimeter)^2÷(4π area), which describes the deviation of an object from a geometric circle. […] The number of invasive and non-invasive cells was counted in ten randomly selected microscopic fields with a 20× objective and 10× eye piece by two blinded observers using an inverted phase contrast microscope (DMI 3000B, Leica, Wetzlar, Germany). The invasion index was calculated as the ratio of the number of cells that invaded the gel divided by the total number of cells counted in each field. […]

[2] = test system: cyclin A in MCF-7 GFP cells; assay: cyclin A expression with recombinant HSP90α, Western blot; assay type: cell-based, human; settings: 10 μg/mL
Procedure: For Western blot analysis MCF-7 cells (1-10×10^6) were harvested in Laemmli lysis buffer (0.125 M Tris-HCl [pH=6.8], 10% glycerol, 2.3% SDS). Cell lysates (25 μg) and CM (20 μL) were suspended in 10 μL reducing sample buffer (1M Tris-HCl [pH=6.8], 30% glycerol, 6% SDS, 3% β-mercaptoethanol, 0.005% bromophenol blue) and boiled for 5 minutes at 95° C. Samples were run on NuPage 4-20% Bis-Tris gradient gels (Invitrogen), transferred to PVDF membranes, blocked in 5% non-fat milk in PBS with 0.5% Tween-20, and immunostained. Scanning densitometry was carried out with the Quantity One Program (Bio-Rad).

[3] = test system: MCF-7 GFP cells; assay: cell proliferation assay with recombinant HSP90α; assay type: cell-based, human; settings: 10 μg/mL added to culture medium; P<0.001
Procedure: To examine whether Rab27B affects cell proliferation in a GTP-, geranylgeranyl-, and HSP90α-dependent manner, three sets of experiments were conducted: 1) proliferation rates of MCF-7 cells stably expressing GFP, GFP-Rab27B, GFP-Rab27B Q78L, GFP-Rab27B T23N, and GFP-Rab27B GER were compared; 2) proliferation rates of MCF-7 GFP-Rab27B cells transiently targeted with control or Rab27B siRNAs were studied; and 3) proliferation rates of MCF-7 GFP cells, treated with recombinant HSP90α, and MCF-7 GFP-Rab27B cells, challenged with control IgG or anti-HSP90α neutralizing antibody, were evaluated. To obtain a growth curve under each condition, triplicate wells of seeded cells were each counted five times. Two investigators independently counted the total number of cells in each well every 2 days for a total of 8 days with the use of a manual hemocytometer.

[4] = test system: MCF-7 cells; assay: type I collagen invasion assay with recombinant HSP90 proteins; assay type: cell-based, human; settings: 24 hours
Procedure: as §1, §2

With COC1=C2C[C@@H](C)C[C@H](OC)[C@H](O)[C@@H](C)/C=C(\C)[C@H](OC(N)=O)[C@@H](OC)/C=C\C=C(/C)C(=O)NC(=CC1=O)C2=O [geldanamycin] the inhibition at 1 µM [1] was 85 to 100%.

With “recombinant HSP90α: HSP90α recombinant protein obtained from Stressgen” the “cyclin A expression” value [2] was “increased cyclin A expression”, the “proliferation of MCF-7 cells” value [3] was “increased proliferation” and the “type I collagen invasion” value ([4]; 1-10 μg/mL recombinant protein, P=0.04 at 5 μg/mL, P=0.003 at 10 μg/mL) was “dose-dependent increase”.

In the case of “recombinant HSP90β: HSP90β recombinant protein obtained from Stressgen”, the “type I collagen invasion” value ([4]; 10 μg/mL recombinant protein) is reported as “no effect”.
